Source: patent US11879012B2, “Method of modulating cell proliferation” (METRO NORTH HOSPITAL AND HEALTH SERVICE, priority 2018, dated 2024)

Test system: corneal-limbal epithelial cells
Experiment: MTT conversion / proliferation of primary corneal-limbal epithelial cells
Assay type: cell-based, human
Settings: 40 μM Y27632 alone; FIG. 5D
From the text: Cultures of non-transformed human corneal epithelial cells were established from either enzymatically-dissociated sample of corneal-scleral tissue or from pieces of intact corneal limbus seeded into culture dishes (i.e., explant method). In either case, corneal tissue from cadaveric donors was used. Each tissue sample was acquired with consent and ethics approval our HREC Approval No. 0800000807) in the form of either surgical cut-offs or intact corneas that had been rejected by the eye bank (e.g., poor endothelial cell density).
For dissociated cultures, washed tissue samples were cut into quarters before being incubated for 1 hour at 37° C. in 0.25% (w/v) Dispase solution (Life Technologies). Epithelial tissue was subsequently harvested from the limbus and peripheral cornea by scraping with a pipette tip, then dissociated by digestion in 0.05% Trypsin/0.02% EDTA (Sigma) for 5 minutes at 37° C. The resulting cell suspension was washed and resuspended in complete culture medium. […]
To initiate cultures from whole tissue, each well of a 6-well culture plate (approximately 6×10 cm^2) was initially filled with 2 mL, of 100% FBS and incubated for at least 30 minutes at 37° C. […] Over subsequent days, each p0 culture was routinely monitored for evidence of epithelial outgrowth until a confluent sheet measuring approximately 2-3 cm^2 had been achieved (approximately 1-2 weeks). […]

For `C[C@@H](N)[C@H]1CC[C@H](C(=O)Nc2ccncc2)CC1` [Y27632], the “MTT conversion (cell proliferation)” value was “dose-dependent increase in MTT conversion”.
